Laboratory results from PMC12250302, “Synthesis, Antimicrobial Activities, and Model of Action of Novel Tetralone Derivatives Containing Aminoguanidinium Moiety” (International Journal of Molecular Sciences, 2025).
Converted amounts (≈) assume the structure as drawn.

What was measured:
[1] = tested on: MRSA-2; experiment: Bactericidal time-kill kinetics assay; format: cell-based, Staphylococcus aureus; settings: 2, 4 and 8 µg/mL, 0-24 h
Method: (§1) S. aureus (ATCC 29213) and MRSA-2 were cultivated in MH broth until the logarithmic growth phase and then diluted to 1 × 10^7 CFU/mL, respectively. […] After a specified time interval (0, 1, 2, 4, 8, 12, and 24 h), the culture suspension was serially diluted in 0.9% saline over a concentration range from 10^−1 to 10^−9. A volume of 100 μL of the obtained diluent and culture solution was dispensed onto a sterile MH agar plate. The plate was subsequently cultured at 37 °C for a duration of 24 h. The total number of colonies was enumerated and expressed as log10(CFU/mL).

[2] = tested on: S. aureus (ATCC 29213); experiment: Bactericidal time-kill kinetics assay; format: cell-based, Staphylococcus aureus; settings: 2, 4 and 8 µg/mL, 0-24 h
Method: as §1

[3] = tested on: MRSA-2; experiment: Membrane depolarization assay, DiSC3(5); format: cell-based, Staphylococcus aureus; settings: 2, 4, and 8 μg/mL
Method: MRSA-2 was cultivated in MH broth, with a final concentration of 1 × 10^8 CFU/mL. After centrifugation, the supernatant was discarded. The bacterial precipitate was washed thrice and resuspended with PBS. Subsequently, the bacterial resuspension (180 μL) and the DiSC5 (10 μL, 3 μM) were incubated in the dark for 30 min. The fluorescence intensity was measured at 2 min intervals for a period of 10 min. After the fluorescence intensity was stabilized, 10 μL of 2D (final concentrations of 1, 2, 4, and 8 μg/mL) was added, respectively. The fluorescence intensity was measured at 2 min intervals for a total duration of 30 min. The excitation/emission wavelength was 622/670 nm.

[4] = tested on: MRSA-2; format: cell-based, Staphylococcus aureus; settings: not told
Method: MRSA-2 bacterial precipitates in the logarithmic growth phase were collected by centrifugation, washed, and resuspended in PBS to a density of 1 × 10^6 CFU/mL. PI (10 μM, 40 μL) was added to a black 96-well plate along with 150 μL of bacterial suspension. After an incubation period of 30 min, fluorescence was detected at excitation wavelengths of 535 nm and emission wavelengths of 617 nm at 5 min intervals until a stable state was reached.

[5] = tested on: MRSA-2 biofilm; experiment: Biofilm elimination assay (crystal violet); format: cell-based, Staphylococcus aureus; settings: 0.25 μg/mL, 24 h
Method: The ability of 2D to eliminate biofilm was evaluated. MRSA-2 (1 × 10^6 CFU/mL) was incubated in 96-well plates for 24 h until biofilm formation. The planktonic bacteria were discarded and washed thrice with PBS. […] According to the above method, the OD575 nm value was detected after the following steps: PBS washing, methanol fixation, crystal violet staining, and ethanol incubation.

[6] = tested on: MRSA-1; experiment: MIC and MBC testing, broth microdilution; format: cell-based, Staphylococcus aureus; settings: Staphylococcus aureus, MRSA-1
Outline: (§2)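 Strains grown to logarithmic phase were diluted to 1 × 10^6 CFU/mL, combined with compound two-fold dilution series in MH broth, and incubated at 37 °C for 18 h. MIC and MBC were then recorded, with triplicate wells per concentration.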

[7] = tested on: clinical S. aureus isolate LMY46; experiment: MIC and MBC testing, broth microdilution; format: cell-based, Staphylococcus aureus; settings: Staphylococcus aureus, LMY46
Outline: as §2

[8] = tested on: P. aeruginosa ATCC 27853; experiment: MIC and MBC testing, broth microdilution; format: cell-based, Pseudomonas aeruginosa; settings: Pseudomonas aeruginosa
Outline: (§3)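 Twofold serial dilutions of compound in DMSO were prepared in MH broth and mixed with log-phase bacteria, which had been diluted to 1 × 10^6 CFU/mL before mixing. Plates were incubated 18 h at 37 °C. MIC was the lowest concentration without visible growth, in triplicate.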

[9] = tested on: E. coli ATCC 25922; experiment: MIC and MBC testing, broth microdilution; format: cell-based, Escherichia coli; settings: Escherichia coli
Outline: as §3

[10] = tested on: MRSA-2; experiment: Bacterial DNA and protein leakage experiment; format: cell-based, Staphylococcus aureus; settings: compared with the control group; 4 h
Method: MRSA-2 was cultured to logarithmic growth phase. The bacterial precipitate was collected, washed twice with PBS (pH = 7.2–7.4), and resuspended in PBS to 1 × 10^7 CFU/mL. […] After centrifugation of 1 mL of the suspension, the supernatant was collected. The protein level was measured by BCA protein concentration kits (Servicebio, Hubei, China), and the DNA level was detected by microspectrophotometer.

[11] = tested on: E. faecium ATCC 35667; experiment: MIC and MBC testing, broth microdilution; format: cell-based, Enterococcus faecium; settings: Enterococcus faecium, ATCC35667, E. faecium ATCC 35667
Outline: as §3

PI fluorescence intensity (inner membrane permeability) [4]: significantly enhanced
MIC ([6]; 18 h, read-out: MIC): 1 µg/mL (≈ 3.16 µM)
MIC ([7]; 18 h, read-out: MIC): 4 µg/mL (≈ 12.6 µM)
MIC ([8]; ATCC27853, 18 h, read-out: MIC): 16 µg/mL (≈ 50.6 µM)
MIC ([9]; ATCC25922, 18 h, read-out: MIC): 4 µg/mL (≈ 12.6 µM)
MIC ([11]; 18 h, read-out: MIC): 2 µg/mL (≈ 6.32 µM)
SMILES: [H]/N=C(\N)NN=C1CCCc2cc(OCCCCCCC)ccc21 [Compound 2D, (E)-2-(6-(heptyloxy)-3,4-dihydronaphthalen-1(2H)-ylidene)hydrazine-1-carboximidamide]
time-kill response [1]: concentration-dependent and time-dependent bactericidal response
time-kill response [2]: concentration-dependent and time-dependent bactericidal response
DiSC3(5) fluorescence intensity (depolarization) [3]: increased instantaneously
biofilm elimination rate [5]: 21.4%
MBC ([6]; read-out: MBC): 16 µg/mL (≈ 50.6 µM)
MBC ([7]; read-out: MBC): 32 µg/mL (≈ 101 µM)
MBC ([8]; ATCC27853, read-out: MBC): 32 µg/mL (≈ 101 µM)
MBC ([9]; ATCC25922, read-out: MBC): 8 µg/mL (≈ 25.3 µM)
content of extracellular DNA [10]: significantly increased
content of extracellular protein [10]: significantly increased
MBC ([11]; read-out: MBC): 4 µg/mL (≈ 12.6 µM)
